According to patent US20240116923A1, “USE OF INDOLE, 6- AND 7-AZAINDOLE DERIVATIVES AS INHIBITORS OF FERROPTOSIS REGULATED CELL DEATH” (Seabelife, priority 2021, published 2024):

Tested on: Primary cultures of porcine RPE
Assay: Cellular model of retinal pigment epithelium (RPE) phototoxicity (A2E + blue light)
Assay type: cell-based
Conditions: 10 and 30 μM, A2E 30 μM + blue light, 24 h after induction; FIG. 29
Protocol: Primary cultures of porcine RPE are prepared weekly and run on 96-well culture plates after one week in vitro. The cells are incubated with the molecule 10 minutes before induction of phototoxicity. A2E (30 μM) is added to the culture medium 19 hours before cell illumination by a device equipped with blue light emitting leds (λ=[…]). Cell survival and death are detected 24 hours after induction of phototoxicity by staining cells with Hoechst (a nuclear marker) and ethidium (a marker for dead cell nuclei). Images of each well are acquired on a fluorescence microscope equipped with a motorised stage driven by Metamorph software, and cell survival is quantified by inhouse program. The molecules are tested at 10 and 30 μM unless toxicity at this concentration. The negative control corresponds to cells treated with A2E and vehicle. The positive control corresponds to cells treated with A2E and crocetin (100 μM) 48 h before illumination. The treatments are done in quadruplicate and the experiments are performed 4 times.

For `Oc1ccc(-c2cc3ccccc3[nH]2)cc1` [Compound 1, 4-(1H-indol-2-yl)phenol], the “cell survival of RPE cells after induction of phototoxicity” value was “protect RPE cells significantly against phototoxicity”.
